Laboratory results from ChEMBL document CHEMBL5518215, “Unlocking Antibacterial Potential: Key-Site-Based Regulation of Antibacterial Spectrum of Peptides” (J Med Chem, 2024).

How the values were obtained:
[1] = tested on: Escherichia coli; assay: Antimicrobial activity against Escherichia coli 25922 assessed as absence bacterial growth measured after 18 to 24 hrs incubation in presence of 50% serum by NCCLS method; format: functional; settings: time 18-24 hrs
[2] = tested on: Escherichia coli; assay: Antimicrobial activity against Escherichia coli 25922 assessed as absence bacterial growth measured after 18 to 24 hrs incubation in presence of KCl by NCCLS method; format: functional; settings: time 18-24 hrs
[3] = tested on: Erythrocyte; assay: Hemolytic activity in human RBC at effective concentration measured after 1 hr by microplate reader analysis; format: toxicity, cell-based
[4] = tested on: Acinetobacter baumannii; assay: Antimicrobial activity against Acinetobacter baumannii 1.6769 assessed as absence bacterial growth measured after 18 to 24 hrs incubation by NCCLS method; format: functional; settings: time 18-24 hrs
[5] = tested on: Enterococcus faecalis; assay: Antimicrobial activity against Enterococcus faecalis 29212 assessed as absence bacterial growth measured after 18 to 24 hrs incubation by NCCLS method; format: functional; settings: time 18-24 hrs
[6] = tested on: Escherichia coli; assay: Antimicrobial activity against Escherichia coli 25922 assessed as absence bacterial growth measured after 18 to 24 hrs incubation in presence of NH4Cl by NCCLS method; format: functional; settings: time 18-24 hrs
[7] = tested on: Escherichia coli; assay: Antimicrobial activity against Escherichia coli 25922 assessed as absence bacterial growth measured after 18 to 24 hrs incubation in presence of 25% serum by NCCLS method; format: functional; settings: time 18-24 hrs
[8] = tested on: Salmonella typhimurium; assay: Antimicrobial activity against Salmonella typhimurium 14028 assessed as bacterial killing measured after 16 hrs incubation; format: functional, Salmonella enterica subsp. enterica serovar Typhimurium; settings: Salmonella enterica
[9] = tested on: Escherichia coli; assay: Antimicrobial activity against Escherichia coli K88 assessed as bacterial killing measured after 16 hrs incubation; format: functional
[10] = tested on: Escherichia coli; assay: Antimicrobial activity against Escherichia coli 25922 assessed as bacterial killing measured after 16 hrs incubation; format: functional
[11] = tested on: Listeria monocytogenes; assay: Antimicrobial activity against Listeria monocytogenes 1.10753 assessed as bacterial killing measured after 16 hrs incubation; format: functional
[12] = tested on: Escherichia coli; assay: Antimicrobial activity against Escherichia coli 25922 assessed as absence bacterial growth measured after 18 to 24 hrs incubation by NCCLS method; format: functional; settings: time 18-24 hrs
[13] = Cytotoxicity against mouse RAW264.7 cells assessed as cell survival rate measured after 8 hrs by MTT assay; format: toxicity, cell-based
[14] = tested on: Bacillus cereus; assay: Antimicrobial activity against Bacillus cereus 1.932 assessed as absence bacterial growth measured after 18 to 24 hrs incubation by NCCLS method; format: functional; settings: time 18-24 hrs
[15] = tested on: Salmonella typhimurium; assay: Antimicrobial activity against Salmonella typhimurium 14028 assessed as absence bacterial growth measured after 18 to 24 hrs incubation by NCCLS method; format: functional, Salmonella enterica subsp. enterica serovar Typhimurium; settings: Salmonella enterica, time 18-24 hrs
[16] = tested on: Listeria monocytogenes; assay: Antimicrobial activity against Listeria monocytogenes 1.10753 assessed as absence bacterial growth measured after 18 to 24 hrs incubation by NCCLS method; format: functional; settings: time 18-24 hrs
[17] = tested on: Escherichia coli; assay: Antimicrobial activity against Escherichia coli 25922 assessed as absence bacterial growth measured after 18 to 24 hrs incubation in presence of FeCl3 by NCCLS method; format: functional; settings: time 18-24 hrs
[18] = tested on: Escherichia coli; assay: Antimicrobial activity against Escherichia coli K88 assessed as absence bacterial growth measured after 18 to 24 hrs incubation by NCCLS method; format: functional; settings: time 18-24 hrs
[19] = tested on: Staphylococcus aureus; assay: Antimicrobial activity against Methicillin-resistant Staphylococcus aureus 43300 assessed as absence bacterial growth measured after 18 to 24 hrs incubation by NCCLS method; format: functional; settings: time 18-24 hrs
[20] = Antimicrobial activity against Salmonella pullorum C7913 assessed as absence bacterial growth measured after 18 to 24 hrs incubation by NCCLS method; format: functional, Salmonella enterica subsp. enterica serovar Pullorum; settings: Salmonella enterica, time 18-24 hrs
[21] = tested on: Pseudomonas aeruginosa; assay: Antimicrobial activity against Pseudomonas aeruginosa 27853 assessed as absence bacterial growth measured after 18 to 24 hrs incubation by NCCLS method; format: functional; settings: time 18-24 hrs
[22] = tested on: Staphylococcus aureus; assay: Antimicrobial activity against Staphylococcus aureus 25923 assessed as bacterial killing measured after 16 hrs incubation; format: functional
[23] = tested on: Escherichia coli; assay: Antimicrobial activity against Escherichia coli 25922 assessed as absence bacterial growth measured after 18 to 24 hrs incubation in presence of MgCl2 by NCCLS method; format: functional; settings: time 18-24 hrs
[24] = tested on: Staphylococcus aureus; assay: Antimicrobial activity against Staphylococcus aureus 29213 assessed as absence bacterial growth measured after 18 to 24 hrs incubation by NCCLS m; format: functional; settings: time 18-24 hrs
[25] = Cytotoxicity against human HEK-293T cells assessed as cell survival rate measured after 8 hrs by MTT assay; format: toxicity, cell-based
[26] = tested on: Salmonella typhimurium; assay: Antimicrobial activity against Salmonella typhimurium C7731 assessed as bacterial killing measured after 16 hrs incubation; format: functional, Salmonella enterica subsp. enterica serovar Typhimurium; settings: Salmonella enterica
[27] = tested on: Staphylococcus aureus; assay: Antimicrobial activity against Staphylococcus aureus 29213 assessed as bacterial killing measured after 16 hrs incubation; format: functional
[28] = tested on: Escherichia coli; assay: Antimicrobial activity against Escherichia coli 25922 assessed as absence bacterial growth measured after 18 to 24 hrs incubation in presence of 12.5% serum by NCCLS method; format: functional; settings: time 18-24 hrs
[29] = tested on: Staphylococcus aureus; assay: Antimicrobial activity against Methicillin-resistant Staphylococcus aureus 43300 assessed as bacterial killing measured after 16 hrs incubation; format: functional
[30] = tested on: Staphylococcus epidermidis; assay: Antimicrobial activity against Staphylococcus epidermidis 12228 assessed as bacterial killing measured after 16 hrs incubation; format: functional
[31] = tested on: Escherichia coli; assay: Antimicrobial activity against Escherichia coli 25922 assessed as absence bacterial growth measured after 18 to 24 hrs incubation in presence of ZnCl2 by NCCLS method; format: functional; settings: time 18-24 hrs
[32] = tested on: Salmonella typhimurium; assay: Antimicrobial activity against Salmonella typhimurium C7731 assessed as absence bacterial growth measured after 18 to 24 hrs incubation by NCCLS method; format: functional, Salmonella enterica subsp. enterica serovar Typhimurium; settings: Salmonella enterica, time 18-24 hrs
[33] = tested on: Acinetobacter baumannii; assay: Antimicrobial activity against Acinetobacter baumannii 1.6769 assessed as bacterial killing measured after 16 hrs incubation; format: functional
[34] = tested on: Bacillus cereus; assay: Antimicrobial activity against Bacillus cereus 1.932 assessed as bacterial killing measured after 16 hrs incubation; format: functional
[35] = tested on: Staphylococcus epidermidis; assay: Antimicrobial activity against Staphylococcus epidermidis 12228 assessed as absence bacterial growth measured after 18 to 24 hrs incubation by NCCLS method; format: functional; settings: time 18-24 hrs
[36] = tested on: Escherichia coli; assay: Antimicrobial activity against Escherichia coli 25922 assessed as absence bacterial growth measured after 18 to 24 hrs incubation in presence of NaCl by NCCLS method; format: functional; settings: time 18-24 hrs
[37] = tested on: Enterococcus faecalis; assay: Antimicrobial activity against Enterococcus faecalis 29212 assessed as bacterial killing measured after 16 hrs incubation; format: functional
[38] = tested on: Pseudomonas aeruginosa; assay: Antimicrobial activity against Pseudomonas aeruginosa 27853 assessed as bacterial killing measured after 16 hrs incubation; format: functional
[39] = tested on: Staphylococcus aureus; assay: Antimicrobial activity against Staphylococcus aureus 29213 assessed as absence bacterial growth measured after 18 to 24 hrs incubation by NCCLS method; format: functional; settings: time 18-24 hrs
[40] = Antimicrobial activity against Salmonella pullorum C7913 assessed as bacterial killing measured after 16 hrs incubation; format: functional, Salmonella enterica subsp. enterica serovar Pullorum; settings: Salmonella enterica
[41] = Cytotoxicity against porcine IPEC-J2 cells assessed as cell survival rate measured after 8 hrs by MTT assay; format: toxicity, cell-based, Sus scrofa; settings: pig

H-GKLWLKGIKLWLKGGKLWLKG-NH2
MIC [1]: > 32 µM
MIC [2]: 2 µM
HC10 [3]: 64 µM
MIC [4]: 2 µM
MIC [5]: 4 µM
MIC [6]: 2 µM
MIC [7]: > 32 µM
MBC [8]: 2 µM
MBC [9]: 1 µM
MBC [10]: 2 µM
MBC [11]: > 32 µM
MIC [12]: 2 µM
IC50 at 8 h [13]: 36.9 µM
MIC [14]: 2 µM
MIC [15]: 2 µM
MIC [16]: > 32 µM
MIC [17]: 2 µM
MIC [18]: 1 µM
MIC [19]: 2 µM
MIC [20]: 1 µM
MIC [21]: 4 µM
MBC [22]: 4 µM
MIC [23]: 8 µM
MIC [24]: 4 µM
IC50 at 8 h [25]: 33.5 µM
MBC [26]: 8 µM
MBC [27]: 8 µM
MIC [28]: 16 µM
MBC [29]: 2 µM
MBC [30]: 4 µM
MIC [31]: 2 µM
MIC [32]: 8 µM
MBC [33]: 2 µM
MBC [34]: 2 µM
MIC [35]: 4 µM
MIC [36]: 4 µM
MBC [37]: 8 µM
MBC [38]: 8 µM
MIC [39]: 8 µM
MBC [40]: 1 µM
IC50 at 8 h [41]: 18.9 µM

H-GKLWLKGCKLWLKGGKLWLKG-NH2
MIC [1]: > 32 µM
MIC [2]: 8 µM
HC10 [3]: > 128 µM
MIC [4]: 8 µM
MIC [5]: > 32 µM
MIC [6]: 8 µM
MIC [7]: > 32 µM
MBC [8]: 16 µM
MBC [9]: 2 µM
MBC [10]: 8 µM
MBC [11]: > 32 µM
MIC [12]: 8 µM
IC50 at 8 h [13]: > 64 µM
MIC [14]: 4 µM
MIC [15]: 8 µM
MIC [16]: > 32 µM
MIC [17]: 8 µM
MIC [18]: 2 µM
MIC [19]: 32 µM
MIC [20]: 2 µM
MIC [21]: 32 µM
MBC [22]: > 32 µM
MIC [23]: > 32 µM
MIC [24]: > 32 µM
IC50 at 8 h [25]: > 64 µM
MBC [26]: 32 µM
MBC [27]: > 32 µM
MIC [28]: > 32 µM
MBC [29]: 32 µM
MBC [30]: > 32 µM
MIC [31]: 8 µM
MIC [32]: 8 µM
MBC [33]: 16 µM
MBC [34]: 4 µM
MIC [35]: > 32 µM
MIC [36]: > 32 µM
MBC [37]: > 32 µM
MBC [38]: 32 µM
MIC [39]: > 32 µM
MBC [40]: 4 µM
IC50 at 8 h [41]: > 64 µM
